Measured values from EP4745117A1, “NOVEL INDENONE DERIVATIVE AND USE THEREOF” (Amyloid Solution Inc., priority 2023, dated 2025).

Assays:
[1] = molecular target: Tau-RD3 (Tau repeat domain 3) (Homo sapiens, UniProt P10636); test: Tau disaggregation test by Thioflavin-T analysis; assay type: biochemical; conditions: for EC50: Tau-RD3 35 µM aggregated 24 hours, then compound 0 - 500 µM for 48 hours at 37 °C, concentration disaggregating 50 % of aggregates vs control, read-out: EC50 (µM) Tau; for disaggregation effect for tau protein aggregates: statement in words summarising the Thioflavin-T results
Method in brief: (§1)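 Aβ1-42 (50 µM) or Tau-RD3 (35 µM) pre-aggregated 24 h at 37 °C, then incubated with compound (500 µM down to 0 µM, serial dilution) for 48 h at 37 °C. Read-out by Thioflavin-T (5 µM solution, glycine buffer pH 8.5) fluorescence, ex 450/em 485 nm. Values expressed relative to 72 h aggregated protein-only control (100%).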

[2] = tested on: amyloid-beta oligomers in HEK293 cells transfected with the APP E693Δ mutant plasmid; test: Amyloid-beta oligomer change by dot blot (A11 antibody) in an amyloid-beta oligomer-overexpressing cell line; assay type: cell-based; conditions: compound 10 µM, 48 hours, dot blot of cell lysate, relative to control group (FIG. 1)
Description: To observe the change in intracellular amyloid-beta oligomers, a plasmid with the APP E693Δ (Osaka mutation) mutant, which is associated with early-onset Alzheimer's disease and is known to induce intracellular amyloid-beta oligomer formation, was obtained from GenScript. This plasmid was transfected into HEK293 cells using a liposome-mediated method (Lipofectamine) to prepare a cell line that overexpresses intracellular amyloid-beta oligomers.
HEK293 cells transfected with the APP E693Δ mutant plasmid were incubated for 48 hours in a 37 °C, 5 % CO2 incubator, and then treated with the compounds prepared in 1.1, which were diluted to a concentration of 10 µM in the cell culture medium. The untransfected control group was treated with 0.1 % DMSO, the same as the compound-treated group.
The compound-treated cell lines were again incubated for 48 hours in a 37 °C, 5 % CO2 incubator and then used in the experiment.
After incubating the control and compound-treated cells from Example 2.2, a dot blot was performed using the cell lysate. A 3.5 µg sample was spotted onto a nitrocellulose membrane and air-dried, and then the membrane to which the sample was adhered was blocked with 5 % skim milk. After incubating with the amyloid oligomer antibody A11 to allow binding, the membrane was washed 4 times with TBST, and the secondary antibody was bound. The image signal was measured using a chemiluminescent substrate.
It was confirmed that the amount of amyloid-beta oligomers was reduced by each compound treatment compared to the control group.

Aβ1-42 = molecular target: T1, Aβ1-42 (Homo sapiens, UniProt P05067); test: Amyloid-beta disaggregation test by Thioflavin-T analysis; assay type: biochemical; conditions: for EC50: Aβ1-42 50 µM aggregated 24 hours, then compound 0 - 500 µM for 48 hours at 37 °C, concentration disaggregating 50 % of aggregates vs control, read-out: EC50 (µM) Aβ; for disaggregation effect for amyloid-beta protein aggregates: statement in words summarising the Thioflavin-T results
T1 construct: dissolving Aβ1-42 or Tau-RD3 (Tau repeat domain 3) monomers in DMSO
Method in brief: as §1

T1 sequence (P05067 672-713 limits assumed): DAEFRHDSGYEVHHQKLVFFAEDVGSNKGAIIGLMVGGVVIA
Tau-RD3 (Tau repeat domain 3), sequence (P10636 623-653 limits assumed): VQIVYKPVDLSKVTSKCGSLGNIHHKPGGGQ

Structure (SMILES) | EC50 [1] | EC50 (Aβ1-42) | amyloid-beta oligomer reduction effect [2] | disaggregation effect for tau protein aggregates [1] | disaggregation effect for amyloid-beta protein aggregates (Aβ1-42)
Cc1ncsc1C1=C(c2ccc(N3CCN(C)CC3)cc2)C(=O)c2cc(N3CCN(CCO)CC3)ccc21 [Compound 74, 6-(4-(2-hydroxyethyl)piperazin-1-yl)-2-(4-(4-methylpiperazin-1-yl)phenyl)-3-(4-methylthiazol-5-yl)-1H-inden-1-one] | < 20 µM | < 20 µM | reduction effect |  | 
Cc1ncsc1C1=C(c2cccnc2)C(=O)c2cc(N(C)CCCc3ccccc3)ccc21 [Compound 65, 6-(methyl(3-phenylpropyl)amino)-3-(4-methylthiazol-5-yl)-2-(pyridin-3-yl)-1H-inden-1-one] | < 20 µM |  | reduction effect | remarkably excellent disaggregation effect | remarkably excellent disaggregation effect
Cc1ncsc1C1=C(c2cccnc2)C(=O)c2cc(NC3CC3)ccc21 [Compound 63, 6-(cyclopropylamino)-3-(4-methylthiazol-5-yl)-2-(pyridin-3-yl)-1H-inden-1-one] | < 20 µM | < 20 µM | reduction effect | remarkably excellent disaggregation effect | remarkably excellent disaggregation effect
Cc1ncsc1C1=C(c2ccc(N3CCN(C)CC3)cc2)C(=O)c2cc(Cl)ccc21 [Compound 74-7, 6-chloro-2-(4-(4-methylpiperazin-1-yl)phenyl)-3-(4-methylthiazol-5-yl)-1H-inden-1-one] | < 20 µM | < 20 µM | reduction effect | remarkably excellent disaggregation effect | remarkably excellent disaggregation effect
CN1CCN(c2ccc3c(c2)C(=O)C(c2ccccc2)=C3c2ccccc2)CC1 [Compound 13, 6-(4-methylpiperazin-1-yl)-2,3-diphenyl-1H-inden-1-one] | < 20 µM | < 20 µM | reduction effect | remarkably excellent disaggregation effect | remarkably excellent disaggregation effect
CN1CCN(c2ccc(C3=C(c4ccccc4)c4ccccc4C3=O)cc2)CC1 [Compound 90, 2-(4-(4-methylpiperazin-1-yl)phenyl)-3-phenyl-1H-inden-1-one] | < 20 µM | < 20 µM | reduction effect | remarkably excellent disaggregation effect | remarkably excellent disaggregation effect
Cc1ncsc1C1=C(c2cnn(C3CCN(C)CC3)c2)C(=O)c2cc(OCCCc3ccccc3)ccc21 [Compound 30, 2-(1-(1-methylpiperidin-4-yl)-1H-pyrazol-4-yl)-3-(4-methylthiazol-5-yl)-6-(3-phenylpropoxy)-1H-inden-1-one] | < 20 µM | < 20 µM | reduction effect |  | 
Cc1cccc(C)c1C1=C(c2ccccc2)C(=O)c2cc(N3CCN(C)CC3)ccc21 [Compound 72, 3-(2,6-dimethylphenyl)-6-(4-methylpiperazin-1-yl)-2-phenyl-1H-inden-1-one] | < 20 µM | < 20 µM | reduction effect | remarkably excellent disaggregation effect | remarkably excellent disaggregation effect
Cc1ncsc1C1=C(c2ccc(N3CCN(C)CC3)cc2)C(=O)c2cc(N3CCN(C)CC3)ccc21 [Compound 75, 6-(4-methylpiperazin-1-yl)-2-(4-(4-methylpiperazin-1-yl)phenyl)-3-(4-methylthiazol-5-yl)-1H-inden-1-one] | < 20 µM | < 20 µM | reduction effect |  | 
O=C1C(c2ccccc2)=C(c2ccccc2)c2ccc(N3CCN(CCO)CC3)cc21 [Compound 70, 6-(4-(2-hydroxyethyl)piperazin-1-yl)-2,3-diphenyl-1H-inden-1-one] | < 20 µM | < 20 µM | reduction effect | remarkably excellent disaggregation effect | remarkably excellent disaggregation effect
COc1ccc2c(c1)C(=O)C(c1ccccc1)=C2c1ccccc1 [Compound 2, 6-methoxy-2,3-diphenyl-1H-inden-1-one] | > 250 µM | < 20 µM |  |  | 

More lines, main results first:

EC50 [1] | EC50 (Aβ1-42) | Structure (SMILES) | amyloid-beta oligomer reduction effect [2] | disaggregation effect for tau protein aggregates [1] | disaggregation effect for amyloid-beta protein aggregates (Aβ1-42)
20 to 100 µM | 20 to 100 µM | Cc1ncsc1C1=C(c2cccnc2)C(=O)c2cc(O)ccc21 [Compound 35, 6-hydroxy-3-(4-methylthiazol-5-yl)-2-(pyridin-3-yl)-1H-inden-1-one] |  |  | 
> 250 µM | > 250 µM | CC(C)(C)c1cc(C2=C(c3ccccc3)C(=O)c3ccccc32)cc(C(C)(C)C)c1 [Compound 96, 3-(3,5-di-tert-butylphenyl)-2-phenyl-1H-inden-1-one] |  |  | 
20 to 100 µM | 100 to 250 µM | Cc1ncsc1C1=C(c2cccnc2)C(=O)c2cc(OCCO)ccc21 [Compound 36, 6-(2-hydroxyethoxy)-3-(4-methylthiazol-5-yl)-2-(pyridin-3-yl)-1H-inden-1-one] |  |  | 
20 to 100 µM | < 20 µM | CN1CCN(c2ccc(C3=C(c4ccccc4)C(=O)c4ccccc43)cc2)CC1 [Compound 94, 3-(4-(4-methylpiperazin-1-yl)phenyl)-2-phenyl-1H-inden-1-one] |  |  | 
> 250 µM | > 250 µM | Cc1ncsc1C1=C(c2ccc(N3CCN(C)CC3)cc2)C(=O)c2ccccc21 [Compound 85, 2-(4-(4-methylpiperazin-1-yl)phenyl)-3-(4-methylthiazol-5-yl)-1H-inden-1-one] |  |  | 
> 250 µM | > 250 µM | COCCNc1ccc2c(c1)C(=O)C(c1cccnc1)=C2c1scnc1C [Compound 54, 6-((2-methoxyethyl)amino)-3-(4-methylthiazol-5-yl)-2-(pyridin-3-yl)-1H-inden-1-one] |  |  | 
20 to 100 µM | 20 to 100 µM | O=C1C(c2ccccc2)=C(c2cccnc2)c2ccccc21 [Compound 9, 2-phenyl-3-(pyridin-3-yl)-1H-inden-1-one] |  |  | 
100 to 250 µM | > 250 µM | Cn1cc(C2=C(c3cccnc3)C(=O)c3cc(O)ccc32)cn1 [Compound 42-7, 6-hydroxy-3-(1-methyl-1H-pyrazol-4-yl)-2-(pyridin-3-yl)-1H-inden-1-one] |  |  | 
20 to 100 µM | < 20 µM | Cc1ncsc1C1=C(c2cccc(CN3CCN(C)CC3)c2)C(=O)c2ccccc21 [Compound 88, 2-(3-((4-methylpiperazin-1-yl)methyl)phenyl)-3-(4-methylthiazol-5-yl)-1H-inden-1-one] |  |  | 
> 250 µM | > 250 µM | CNC(=O)c1ccccc1C1=C(c2ccccc2C)c2ccccc2C1=O [Compound 99, N-methyl-2-(1-oxo-3-(o-tolyl)-1H-inden-2-yl)benzamide] |  |  | 
